Reference: US20250195679A1, “ANTIBODY-DRUG CONJUGATE AND USE THEREOF” (SHANGHAI HUAOTA BIOPHARMACEUTICAL CO., LTD., priority 2022, published 2025)

Assays:
[1] = tested on: BxPC-3 human pancreatic cancer cells; experiment: BxPC3 CDX pancreatic cancer mouse efficacy model; assay type: in vivo, NPG mice; settings: 5 mg/kg i.p. BIW, 6 doses, FIG. 7
Protocol: NPG mice were used to establish a BxPC-3 pancreatic cancer animal model for assaying the efficacy of the test antibodies. The BxPC-3 human pancreatic cancer cells used in this example were incubated in an RPMI-1640 medium supplemented with 10% FBS in an incubator at 37° C. with 5% CO2. Before continuous cell culturing for ten generations, 100 μL of PBS containing about 1×10^7 BxPC-3 cells was mixed uniformly with an equal volume of Matrigel. The mixture was then inoculated by subcutaneous injection into 18 NPG mice on the right side of the back near the axilla, with an inoculation volume of about 200 μL. The mice were anesthetized with 2%-5% isoflurane prior to the inoculation. On the day of inoculation, 1.0×10^7 PBMCs (100 μL) were injected via the tail vein. When the tumors grew to an average size of about 50-80 mm^3, the 18 tumor-bearing mice were randomly divided into 3 groups of 6 based on tumor volume and body weight.
Oleclumab is an anti-CD73 monoclonal antibody developed by AstraZeneca, currently in Phase 2 clinical trials. Uliledlimab is an anti-CD73 monoclonal antibody developed by I-Mab Biopharma, currently in Phase 1 clinical trials. The amino acid sequence of the heavy chain of 900543 is as set forth in SEQ ID NO. 45, and the amino acid sequence of the light chain of 900543 is as set forth in SEQ ID NO. 46. […]

[2] = tested on: MDA-MB-231 human breast cancer cells; experiment: MDA-MB-231 triple-negative breast cancer CDX mouse efficacy model (Example 8); assay type: in vivo, NPG mice; settings: 5 mg/kg i.p. BIW, 8 doses, FIG. 8
Protocol: NPG mice were used to establish an MDA-MB-231 triple-negative breast cancer animal model for assaying the efficacy of the test antibodies. The MDA-MB-231 human breast cancer cells used in this example were incubated in an L-15 medium supplemented with 10% FBS in an incubator at 37° C. without CO2. Before continuous cell culturing for ten generations, about 5.0×10^6 MDA-MB-231 cells were suspended in 100 μL of PBS and then mixed uniformly with an equal volume of Matrigel. The mixture was then inoculated by subcutaneous injection into NPG humanized mice on the right side of the back near the axilla, with an inoculation volume of about 200 μL. The mice were anesthetized with 2%-5% isoflurane prior to the inoculation. On the day of inoculation, 1.0×10^7 PBMCs (100 μL) were injected via the tail vein. When the tumors grew to an average size of about 50-80 mm^3, the […] tumor-bearing mice were randomly divided into 7 groups of 6 based on tumor volume and body weight. […] Oleclumab is an anti-CD73 monoclonal antibody developed by AstraZeneca, currently in Phase 2 clinical trials. The amino acid sequence of the heavy chain of 900201 is as set forth in SEQ ID NO. 43, and the amino acid sequence of the light chain of 900201 is as set forth in SEQ ID NO. 44.

900543: negative control antibody, which does not bind to the CD73 antigen; heavy chain SEQ ID NO. 45, light chain SEQ ID NO. 46 [compound 900543, reference compound]
inhibition of growth of BxPC-3 pancreatic cancer [1]: could not inhibit tumor growth

900201: negative control antibody, which does not bind to the CD73 antigen; heavy chain SEQ ID NO. 43, light chain SEQ ID NO. 44 [compound 900201, reference compound]
inhibition of growth of MDA-MB-231 breast cancer [2]: could not inhibit the tumor growth
